Data from patent US20040236519A1, “Libraries of confomationally constrained peptides, chiral azacrowns, and peptidomimetics and methods of making the same” (priority 2001, published 2004).

Tests used:
Sodium, Site 2 [1] = conditions: cited from earlier work
[2] = target: Potassium Channel, ATP-Sensitive; conditions: cited from earlier work
[3] = system: Potassium Channel, ATP-Sensitive; test: Radioligand binding assay, potassium channel, ATP-sensitive (NOVASCREEN); conditions: 1.0E−5 (single dose 10 μM); average, N = 2
Method: (§1) Evaluation of M40403 and M40401 in the following radioligand binding assays: potassium channels (ATP-sensitive, Ca2+Act., VI, potassium channel, CA2+Act., VS) and sodium channels (site 1 and site 2). M40403 and M40401 were tested at a single does of 10 µM. The list of an appropriate radioligand used in each ion channel assay is shown in Table 1. […].
(§2) Screening assays can provide valuable information about a compound's biological activity and selectivity. NOVASCREEN Biosciences Corporation of Hanover, Md. was used for these assays. To understand and assess the data, these guidelines are to be used for interpretation of the data presented:
(§3) In most assays, our standard baseline range runs from −20% to +20% inhibition of binding or enzyme activity. […]. NOVASCREEN's assays are designed to test for inhibition of binding or enzyme activity. […]. NOVASCREEN uses a criteria of 50% inhibition (or greater) to qualify a compound as active. Active compounds tested at multiple concentrations can generally be expected to show a dose-dependent response and such follow-up studies are recommended.

[4] = system: Potassium Channel, Ca2+ Act., VI; test: Radioligand binding assay, potassium channel, Ca2+ Act., VI (NOVASCREEN); conditions: 1.0E−5 (single dose 10 μM); average, N = 2
Method: as §1, §2, §3

[5] = system: Potassium Channel, Ca2+ Act., VS; test: Radioligand binding assay, potassium channel, Ca2+ Act., VS (NOVASCREEN); conditions: 1.0E−5 (single dose 10 μM); average, N = 2
Method: as §1, §2, §3

Sodium, Site 1 = test: Radioligand binding assay, sodium channel site 1 (NOVASCREEN); conditions: 1.0E−5 (single dose 10 μM); average, N = 2
Method: as §1, §2, §3

Sodium, Site 2 [6] = test: Radioligand binding assay, sodium channel site 2 (NOVASCREEN); conditions: 1.0E−5 (single dose 10 μM); average, N = 2
Method: as §1, §2, §3

human opioid μ receptor = target: T1, human opioid μ receptor (Homo sapiens, UniProt P35372); test: Opioid receptor binding, [3H]DAMGO, CHO cell membranes
T1 construct: expressed in transfected cells; host or cells: CHO cells, membranes
T1 sequence (P35372 whole entry): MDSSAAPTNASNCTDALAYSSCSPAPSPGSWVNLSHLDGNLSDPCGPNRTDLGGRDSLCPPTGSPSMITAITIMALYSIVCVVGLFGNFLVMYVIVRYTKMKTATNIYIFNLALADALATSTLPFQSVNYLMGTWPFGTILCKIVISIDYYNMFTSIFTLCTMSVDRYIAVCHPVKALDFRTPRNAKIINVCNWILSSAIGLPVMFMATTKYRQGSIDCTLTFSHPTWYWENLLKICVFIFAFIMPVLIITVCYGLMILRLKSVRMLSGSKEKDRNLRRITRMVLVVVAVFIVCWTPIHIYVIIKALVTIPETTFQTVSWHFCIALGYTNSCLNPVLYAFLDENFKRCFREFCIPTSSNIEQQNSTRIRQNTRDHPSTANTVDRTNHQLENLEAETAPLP
Method: (§4) Evaluation of M40403 binding affinity for opioid receptors in vitro radioligand binding assays. Referring to FIGS. 6-11, receptor binding studies were conducted on human opioid receptors transfected into Chinese hamster ovary (CHO) cells. The μ cell line is maintained in Ham's F-12 medium supplemented with 10% fetal bovine serum and 400 μg/ml GENETICIN (G418 sulfate). The δ cell line is maintained in Ham's F-12 medium supplemented with 10% fetal bovine serum and 500 μg/ml hygromycin B. The k cell line is maintained in Dulbecco's minimal essential medium (DMEM) supplemental with 10% fetal bovine serum, 400 μg/ml GENETICIN (G418 sulfate) and 0.1% penicillin/streptomycin. All cell lines are grown to full confluency, then harvested for membrane preparation. The membrane for binding assays is prepared in 50 mM Tris buffer, pH 7.7. Cells are harvested by scraping the plates with a rubber policeman and then centrifuged at 500×g for 10 minutes. The cell pellet is suspended in buffer A or Tris buffer, homogenized in a Polytron Homogenizer, and centrifuged at 20,000×g for 20 minutes. The cell pellet is washed in buffer A or Tris, centrifuged at 20,000×g for another 20 minutes and finally suspended in a small amount of buffer to determine protein content. Membrane is aliquoted in small vials at a concentration of 6 mg/ml per vial and stored at −70° C. and used as needed.
(§5) Routine binding assays were conducted using [^3H]DAMGO, [^3H]C1-DPDPE, and [^3H]U69,593 to bind to μ, δ and k receptors, respectively. […] Filters are dried overnight before radioactivity levels are determined. Nonspecific binding is determined by using 1.0 μM of the unlabeled counterpart of each radioligand.
(§6) Full characterization of compounds includes analysis of the data for IC50 values and Hill coefficients by using the program PRIMS. Ki values are calculated using the Cheng Prusoff transformation: [formula]
(§7) where L is radioligand concentration and Kd is the binding affinity of the radioligand, as determined previously by saturation analysis. […]

human opioid δ receptor = target: T2, human opioid δ receptor (Homo sapiens, UniProt P41143); test: Opioid receptor binding, [3H]Cl-DPDPE, CHO cell membranes
T2 construct: expressed in transfected cells; host or cells: CHO cells, membranes
T2 sequence (P41143 whole entry): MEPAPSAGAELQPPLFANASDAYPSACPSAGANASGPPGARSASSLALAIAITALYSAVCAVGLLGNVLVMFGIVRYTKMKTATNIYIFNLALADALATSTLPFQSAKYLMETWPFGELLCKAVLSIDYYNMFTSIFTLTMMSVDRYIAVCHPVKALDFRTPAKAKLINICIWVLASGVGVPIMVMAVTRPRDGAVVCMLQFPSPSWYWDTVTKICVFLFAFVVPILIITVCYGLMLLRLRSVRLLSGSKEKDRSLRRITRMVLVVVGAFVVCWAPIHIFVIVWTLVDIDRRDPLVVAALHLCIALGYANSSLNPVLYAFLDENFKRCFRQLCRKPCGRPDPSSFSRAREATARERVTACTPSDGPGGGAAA
Method: as §4, §5, §6, §7

human opioid k receptor = target: T3, human opioid k receptor (Homo sapiens, UniProt P41145); test: Opioid receptor binding, [3H]U69,593, CHO cell membranes; conditions: human receptor in CHO cell membranes, Cheng Prusoff
T3 construct: expressed in transfected cells; host or cells: CHO cells, membranes
T3 sequence (P41145 whole entry): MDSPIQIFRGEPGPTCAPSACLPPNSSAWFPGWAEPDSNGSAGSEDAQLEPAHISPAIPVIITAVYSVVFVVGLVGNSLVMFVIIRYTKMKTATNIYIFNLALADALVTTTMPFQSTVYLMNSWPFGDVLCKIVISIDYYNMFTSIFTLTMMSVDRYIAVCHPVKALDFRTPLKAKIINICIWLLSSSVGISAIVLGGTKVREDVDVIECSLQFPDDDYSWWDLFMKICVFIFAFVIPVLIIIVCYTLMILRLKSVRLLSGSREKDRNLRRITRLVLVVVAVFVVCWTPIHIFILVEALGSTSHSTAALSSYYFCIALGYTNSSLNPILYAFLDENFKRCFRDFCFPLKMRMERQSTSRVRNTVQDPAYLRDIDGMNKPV
Method: Evaluation of M40403 binding affinity for opioid receptors in vitro radioligand binding assays. Referring to FIGS. 6-11, receptor binding studies were conducted on human opioid receptors transfected into Chinese hamster ovary (CHO) cells. The μ cell line is maintained in Ham's F-12 medium supplemented with 10% fetal bovine serum and 400 μg/ml GENETICIN (G418 sulfate). The δ cell line is maintained in Ham's F-12 medium supplemented with 10% fetal bovine serum and 500 μg/ml hygromycin B. The k cell line is maintained in Dulbecco's minimal essential medium (DMEM) supplemental with 10% fetal bovine serum, 400 μg/ml GENETICIN (G418 sulfate) and 0.1% penicillin/streptomycin. […]
as §5, §6, §7

[7] = target: Potassium Channel, Ca2+ Act., VS; conditions: cited from earlier work
[8] = Competitive metal binding by ESI-MS; type: physicochemical
Method: The ability of these peptides to bind metals was determined by electrospray-ionization mass spectrometry (hereinafter “ESI-MS”). ESI-MS has been successfully used to study a wide variety of non-covalent interactions owing to the gentle nature of the electrospray-ionization process that allows non-covalent complexes to be introduced intact into the gas phase. Thus, ESI-MS provides equilibrium information about the solution and the relative abundance of different peptide-metal binding complexes. The peptide ligands were dissolved in 50% CH3CN or methanol and then diluted to 10 mM solution with 1 mM of CH3COONH4/10% CH3OH solution. Stock solutions (200 uM) of the metal ions (CuSO4, NiSO4, ZnSO4, HgSO4. Co(NO3)2) were made. 40 ul of the ligand solution was mixed with 40 ul of the metal-ion solution, diluted with methanol or 1 mM of CH3COONH4. The solution was treated with KOH to form the complex. Competitive binding was used to study the relative metal-binding properties of each ligand by adding two different metal ions.

[9] = target: Potassium Channel, Ca2+ Act., VI; conditions: radioligand of the assay; cited from earlier work
[10] = Giblin et al., cited from earlier work; for binding affinity reduced compared with the disulfide parent: rhenium complex
[11] = human receptor in CHO cell membranes, Cheng Prusoff

CCN1C[C@]2(COC)[C@H](O)C[C@H](OC)[C@@]34[C@@H]5C[C@@]6(O)[C@H](OC(=O)c7ccccc7)[C@@H]5[C@@](OC(C)=O)([C@@H]([C@H](OC)[C@H]23)[C@@H]14)[C@@H](O)[C@@H]6OC [Aconitine]
Ki (Sodium, Site 2 [1]; reference compound, radioligand [3H]Bactrachotoxin A 20-a-Benzo, read-out: Ki (M) Ref. Cpd.): 8.38e-07 M

COc1ccc(Cl)cc1C(=O)NCCc1ccc(S(=O)(=O)NC(=O)NC2CCCCC2)cc1 [Glibenclamide]
Ki ([2]; reference compound, radioligand [3H]Glibenclamide, read-out: Ki (M) Ref. Cpd.): 7.85e-10 M

[Cl-].[Cl-].[Mn+2].c1cc2nc(c1)CN[C@@H]1CCCC[C@H]1NCCN[C@@H]1CCCC[C@H]1NC2 [M40403]
Percent Inhibition [3]: 4.67%
Percent Inhibition [4]: 30.35%
Percent Inhibition [5]: 9.72%
Percent Inhibition (Sodium, Site 1): −19.68%
Percent Inhibition (Sodium, Site 2 [6]): 93.84%
IC50 (human opioid μ receptor; Hot Ligand [3H]DAMGO, Jul. 2, 1999 and confirmation Jul. 5, 1999, read-out: IC50, MU Binding): > 10000 nM
Ki (human opioid μ receptor; [11]): > 10000 nM
affinity for mu receptors (human opioid μ receptor; summary in words): no significant affinity
IC50 (human opioid δ receptor; Hot Ligand [3H]DPDPE-CL, Jul. 2, 1999 and confirmation Jul. 5, 1999, read-out: IC50, Delta Binding): > 10000 nM
Ki (human opioid δ receptor; [11]): > 10000 nM
affinity for delta receptors (human opioid δ receptor; summary in words): no significant affinity
Ki (human opioid k receptor): ~240 nM
Ki (human opioid k receptor; listed as 20,636): 240 ± 121 nM

COc1ccc(Cl)cc1C(=O)NCCc1ccc(S(=O)(=O)NC(=O)NC2CCCCC2)cc1 [[3H]Glibenclamide]
Kd ([2]; radioligand of the assay): 0.25 nM

Charybdotoxin
Ki ([7]; reference compound, radioligand [125I]Charybdotoxin, read-out: Ki (M) Ref. Cpd.): 5.12e-10 M

H-Val-Ψ(CONOH)-Phe-Ala-Pro-Leu-CONOH [compound 14]
metal-binding ability ([8]; among the peptides containing two hydroxymate groups, competitive binding): strongest metal-binding ability
metal-binding specificity ([8]; competitive binding with two different metal ions): Cu(II)>Co(II)>Fe(III)>Cd(II)>Zn(II)>Ni(II)

[3H]Bactrachotoxin A 20-a-Benzo
Kd (Sodium, Site 2 [1]; radioligand of the assay): 32 nM

[125I]Apamin
Kd [9]: 0.07 nM

[125I]Charybdotoxin
Kd ([7]; radioligand of the assay): 0.1 nM

[Cys^3,4,10, D-Phe7]-α-Msh4-13
binding affinity improved over the previous rhenium complex [10]: 25 fold
binding affinity reduced compared with the disulfide parent [10]: 4 fold

[Cys^4,10, D-Phe7]-α-Msh4-13
binding affinity reduced compared with the disulfide parent [10]: approximately 100 fold
